ChEMBL document CHEMBL1201862, “PubChem BioAssay data set” (2004)
Active and inactive are the calls of the source.

How the values were obtained:
[1] = target: Photoreceptor-specific nuclear receptor (Homo sapiens, UniProt Q9Y5X4); assay type: functional, cell-based;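 further: CHO-S cells with Gal4-NCOR and VP16-NR2E3 two-hybrid luciferase reporter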
[2] = target: T1, Sentrin-specific protease 8 (Homo sapiens, UniProt Q96LD8); assay type: functional
T1 sequence (Q96LD8 whole entry): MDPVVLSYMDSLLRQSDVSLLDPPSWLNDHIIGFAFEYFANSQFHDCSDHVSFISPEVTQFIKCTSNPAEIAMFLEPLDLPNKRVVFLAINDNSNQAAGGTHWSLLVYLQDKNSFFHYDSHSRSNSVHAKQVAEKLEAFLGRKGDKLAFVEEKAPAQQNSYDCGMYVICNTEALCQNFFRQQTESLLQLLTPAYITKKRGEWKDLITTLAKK

Caspase-3 = target: T2, Caspase-3 (Homo sapiens, UniProt P42574); assay type: functional;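 further: Dose-response selectivity test against caspase-3 for candidate inhibitors of sentrin-specific proteases (SENPs)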
T2 sequence (P42574 whole entry): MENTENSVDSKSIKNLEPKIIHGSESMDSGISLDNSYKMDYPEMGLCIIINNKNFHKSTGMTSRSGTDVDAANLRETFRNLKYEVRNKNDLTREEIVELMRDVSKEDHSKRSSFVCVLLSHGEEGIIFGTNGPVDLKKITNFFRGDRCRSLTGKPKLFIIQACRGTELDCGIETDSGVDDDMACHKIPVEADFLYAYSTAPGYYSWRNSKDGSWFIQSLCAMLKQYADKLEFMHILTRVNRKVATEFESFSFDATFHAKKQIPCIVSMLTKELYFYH

[3] = target: T1, Sentrin-specific protease 8; assay type: functional; remark: listed apart in the source
Hexokinase HKDC1 = target: T3, Hexokinase HKDC1 (Homo sapiens, UniProt Q2TB90); experiment: HKDC1 hexokinase inhibitors, dose response, biochemical, W721R variant (AID 504729); assay type: functional
T3 sequence (Q2TB90 whole entry): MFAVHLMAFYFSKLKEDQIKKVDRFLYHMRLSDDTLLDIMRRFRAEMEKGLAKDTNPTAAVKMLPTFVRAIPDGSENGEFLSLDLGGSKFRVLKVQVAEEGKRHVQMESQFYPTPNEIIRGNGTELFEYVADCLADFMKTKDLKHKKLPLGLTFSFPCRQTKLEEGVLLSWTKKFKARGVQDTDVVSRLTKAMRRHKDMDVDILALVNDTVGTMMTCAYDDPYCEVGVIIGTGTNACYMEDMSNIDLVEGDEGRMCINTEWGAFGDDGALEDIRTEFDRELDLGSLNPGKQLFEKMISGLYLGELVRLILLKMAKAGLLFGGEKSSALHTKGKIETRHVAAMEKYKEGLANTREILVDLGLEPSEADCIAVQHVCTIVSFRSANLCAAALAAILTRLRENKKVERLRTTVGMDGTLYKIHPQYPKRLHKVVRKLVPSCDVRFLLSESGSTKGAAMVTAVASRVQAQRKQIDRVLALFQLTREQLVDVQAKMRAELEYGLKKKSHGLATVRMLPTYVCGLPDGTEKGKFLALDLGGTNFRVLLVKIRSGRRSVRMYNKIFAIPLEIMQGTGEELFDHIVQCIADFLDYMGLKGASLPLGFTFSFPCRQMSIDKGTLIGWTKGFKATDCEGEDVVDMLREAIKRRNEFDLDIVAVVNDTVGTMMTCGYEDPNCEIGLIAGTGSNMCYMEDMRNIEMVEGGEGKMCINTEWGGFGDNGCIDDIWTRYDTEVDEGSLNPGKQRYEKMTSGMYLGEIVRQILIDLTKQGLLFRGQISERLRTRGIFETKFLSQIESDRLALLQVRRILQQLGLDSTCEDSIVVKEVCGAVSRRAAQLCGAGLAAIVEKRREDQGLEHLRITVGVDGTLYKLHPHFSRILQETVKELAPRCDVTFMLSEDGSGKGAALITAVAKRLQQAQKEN

[4] = target: Heat shock protein HSP 90-alpha (Homo sapiens, UniProt P07900); experiment: Luminescence-based dose response biochemical high throughput screening assay for inhibitors of the Heat Shock Protein 90 (HSP90). [Related pubchem assays: 1831 (Summary AID.), 1846 (Confirmation screen.), 1789 (Primary screen.)]
[5] = target: Intestinal-type alkaline phosphatase (Mus musculus, UniProt P24822); experiment: mouse intestinal alkaline phosphatase activators, dose response, biochemical, luminescence, uHTS hits (AID 488783); assay type: functional
[6] = target: T4, Alkaline phosphatase, tissue-nonspecific isozyme (Homo sapiens, UniProt P05186); experiment: TNAP enzyme activators, dose response, selectivity assay for mouse IAP activator project, biochemical, TNAP isozyme, mouse IAP uHTS hits (AID 488880); assay type: functional
T4 sequence (P05186 whole entry): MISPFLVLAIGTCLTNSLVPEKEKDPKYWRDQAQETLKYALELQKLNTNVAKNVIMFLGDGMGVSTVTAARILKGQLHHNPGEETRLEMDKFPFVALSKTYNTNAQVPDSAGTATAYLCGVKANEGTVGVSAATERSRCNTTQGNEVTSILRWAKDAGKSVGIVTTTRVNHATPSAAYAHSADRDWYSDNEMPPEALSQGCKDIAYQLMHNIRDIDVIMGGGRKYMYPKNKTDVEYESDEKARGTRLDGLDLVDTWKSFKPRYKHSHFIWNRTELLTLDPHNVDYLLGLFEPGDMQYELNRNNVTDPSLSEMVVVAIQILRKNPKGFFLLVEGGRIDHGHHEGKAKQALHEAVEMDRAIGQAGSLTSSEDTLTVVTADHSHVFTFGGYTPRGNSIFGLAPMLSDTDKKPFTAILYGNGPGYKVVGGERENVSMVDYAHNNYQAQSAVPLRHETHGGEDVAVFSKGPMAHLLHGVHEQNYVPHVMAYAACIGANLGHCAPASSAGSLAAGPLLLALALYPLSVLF

[7] = target: Likely tRNA 2'-phosphotransferase (Candida albicans (strain SC5314 / ATCC MYA-2876) (Yeast), UniProt Q5A7N4); experiment: TPT1 tRNA phosphotransferase inhibitors, dose response, biochemical, fluorescence polarization (AID 2160)
[8] = target: Dual specificity protein phosphatase 3 (Homo sapiens, UniProt P51452); experiment: SAR VHR1 Fluorescent Assay for In Vitro dose response studies. [Related pubchem assays (depositor defined):AID1654, AID1661, AID1878, AID1992, AID2004, AID2070, AID2085]; assay type: functional
Large T antigen = Large T antigen (Simian virus 40, UniProt P03070); assay type: functional, Betapolyomavirus macacae;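 further: Confirmatory-stage PubChem screen for compounds that inhibit SV40 T antigen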
[9] = target: Guanyl-specific ribonuclease T1 (Aspergillus oryzae (strain ATCC 42149 / RIB 40), UniProt P00651); experiment: RNase T1 inhibitors, dose response, counter-screen for TPT1 inhibitor project, biochemical, fluorescence polarization, 1536-well (AID 2167)
Keap1/Nrf2 = Keap1/Nrf2 (Homo sapiens, UniProt Q14145); experiment: Keap1-Nrf2 protein-protein interaction inhibitors, dose response, biochemical, fluorescence polarization, cherry-picked samples (AID 588683)
ORF 73 = ORF 73 (Human herpesvirus 8, UniProt O40947); experiment: inhibitors of C-LANA binding to LBS DNA, dose response, biochemical, fluorescence polarization, cherry-picked samples (AID 504725); parameters: species or system Human gammaherpesvirus 8;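 further: fluorescence polarization of a labeled DNA duplex reporting LANA DNA binding; potency is for inhibitors that block LANA binding to the DNA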
ORF 73, sequence (O40947 whole entry): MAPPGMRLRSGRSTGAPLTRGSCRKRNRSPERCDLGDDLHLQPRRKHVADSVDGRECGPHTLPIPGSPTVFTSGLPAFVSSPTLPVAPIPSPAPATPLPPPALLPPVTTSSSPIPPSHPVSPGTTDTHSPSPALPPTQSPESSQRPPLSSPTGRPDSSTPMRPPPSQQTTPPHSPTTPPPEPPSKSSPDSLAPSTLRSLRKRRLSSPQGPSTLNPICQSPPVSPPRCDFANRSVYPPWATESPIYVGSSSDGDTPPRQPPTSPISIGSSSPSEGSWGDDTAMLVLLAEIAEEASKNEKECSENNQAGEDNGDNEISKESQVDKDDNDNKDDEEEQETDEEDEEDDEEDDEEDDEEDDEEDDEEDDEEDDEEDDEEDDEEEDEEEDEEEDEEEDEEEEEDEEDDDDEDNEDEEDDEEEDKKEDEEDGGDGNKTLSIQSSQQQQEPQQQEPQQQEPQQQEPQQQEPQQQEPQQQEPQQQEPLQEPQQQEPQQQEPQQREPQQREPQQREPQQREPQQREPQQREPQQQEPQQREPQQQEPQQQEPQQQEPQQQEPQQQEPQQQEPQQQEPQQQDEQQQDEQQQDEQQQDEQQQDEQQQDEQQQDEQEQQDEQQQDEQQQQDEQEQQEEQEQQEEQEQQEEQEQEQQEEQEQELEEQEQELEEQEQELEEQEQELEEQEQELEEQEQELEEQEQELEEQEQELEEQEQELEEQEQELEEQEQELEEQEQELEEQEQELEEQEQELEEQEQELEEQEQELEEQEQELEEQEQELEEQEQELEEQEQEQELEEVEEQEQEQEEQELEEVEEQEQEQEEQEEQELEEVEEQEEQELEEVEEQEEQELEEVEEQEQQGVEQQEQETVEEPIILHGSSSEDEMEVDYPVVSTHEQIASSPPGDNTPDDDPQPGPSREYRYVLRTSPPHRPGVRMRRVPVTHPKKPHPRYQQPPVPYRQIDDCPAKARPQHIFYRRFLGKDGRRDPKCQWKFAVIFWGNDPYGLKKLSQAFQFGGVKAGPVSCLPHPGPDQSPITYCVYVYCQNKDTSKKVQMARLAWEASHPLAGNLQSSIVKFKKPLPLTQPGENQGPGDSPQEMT

Guanyl-specific ribonuclease T1, sequence (P00651 whole entry): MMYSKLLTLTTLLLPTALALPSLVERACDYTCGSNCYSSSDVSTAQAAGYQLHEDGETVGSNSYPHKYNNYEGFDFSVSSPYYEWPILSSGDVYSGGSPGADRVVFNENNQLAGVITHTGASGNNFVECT
Photoreceptor-specific nuclear receptor, sequence (Q9Y5X4 whole entry, the tested form may be a part): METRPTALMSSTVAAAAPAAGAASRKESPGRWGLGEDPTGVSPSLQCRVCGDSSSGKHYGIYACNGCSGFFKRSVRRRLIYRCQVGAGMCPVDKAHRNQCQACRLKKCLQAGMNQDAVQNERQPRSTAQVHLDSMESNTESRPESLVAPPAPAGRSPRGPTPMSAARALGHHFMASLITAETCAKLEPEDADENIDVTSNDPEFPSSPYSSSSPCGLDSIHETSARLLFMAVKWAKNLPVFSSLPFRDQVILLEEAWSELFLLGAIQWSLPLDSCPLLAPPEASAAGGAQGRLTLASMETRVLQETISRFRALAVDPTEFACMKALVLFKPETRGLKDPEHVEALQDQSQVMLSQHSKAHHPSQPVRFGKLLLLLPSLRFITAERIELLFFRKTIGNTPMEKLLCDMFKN
Keap1/Nrf2, sequence (Q16236 whole entry): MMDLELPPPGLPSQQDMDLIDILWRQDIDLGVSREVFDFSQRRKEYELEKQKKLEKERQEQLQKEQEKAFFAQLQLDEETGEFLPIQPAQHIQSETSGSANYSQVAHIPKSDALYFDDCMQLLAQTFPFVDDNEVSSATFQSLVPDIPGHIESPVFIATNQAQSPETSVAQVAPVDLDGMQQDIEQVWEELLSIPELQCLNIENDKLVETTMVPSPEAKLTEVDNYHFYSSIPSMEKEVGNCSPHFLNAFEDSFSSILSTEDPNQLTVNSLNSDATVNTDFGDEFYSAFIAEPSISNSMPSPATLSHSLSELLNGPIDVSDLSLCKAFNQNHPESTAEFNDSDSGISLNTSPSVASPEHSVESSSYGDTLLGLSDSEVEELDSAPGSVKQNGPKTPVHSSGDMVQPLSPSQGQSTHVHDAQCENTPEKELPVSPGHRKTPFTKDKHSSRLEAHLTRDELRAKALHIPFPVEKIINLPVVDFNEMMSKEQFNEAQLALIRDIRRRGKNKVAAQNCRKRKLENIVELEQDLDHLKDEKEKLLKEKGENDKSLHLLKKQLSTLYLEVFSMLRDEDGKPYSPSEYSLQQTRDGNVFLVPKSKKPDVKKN
Keap1/Nrf2, sequence (Q14145 whole entry): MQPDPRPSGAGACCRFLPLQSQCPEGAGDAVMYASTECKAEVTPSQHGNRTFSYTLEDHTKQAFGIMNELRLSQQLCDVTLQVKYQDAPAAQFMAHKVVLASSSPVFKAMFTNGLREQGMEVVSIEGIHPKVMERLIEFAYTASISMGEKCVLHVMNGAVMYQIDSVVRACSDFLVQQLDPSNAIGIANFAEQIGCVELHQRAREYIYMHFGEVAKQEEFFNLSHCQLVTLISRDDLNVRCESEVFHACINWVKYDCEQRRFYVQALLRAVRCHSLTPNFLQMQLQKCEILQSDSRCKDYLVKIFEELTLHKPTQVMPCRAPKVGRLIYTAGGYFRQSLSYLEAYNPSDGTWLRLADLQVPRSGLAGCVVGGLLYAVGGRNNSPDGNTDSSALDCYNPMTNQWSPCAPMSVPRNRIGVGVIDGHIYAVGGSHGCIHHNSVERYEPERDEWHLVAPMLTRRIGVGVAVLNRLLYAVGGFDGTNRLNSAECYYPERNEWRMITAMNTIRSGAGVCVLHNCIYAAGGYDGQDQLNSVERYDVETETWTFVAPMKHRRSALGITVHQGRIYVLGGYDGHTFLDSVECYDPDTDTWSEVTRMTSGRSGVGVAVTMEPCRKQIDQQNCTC
Large T antigen, sequence (P03070 whole entry): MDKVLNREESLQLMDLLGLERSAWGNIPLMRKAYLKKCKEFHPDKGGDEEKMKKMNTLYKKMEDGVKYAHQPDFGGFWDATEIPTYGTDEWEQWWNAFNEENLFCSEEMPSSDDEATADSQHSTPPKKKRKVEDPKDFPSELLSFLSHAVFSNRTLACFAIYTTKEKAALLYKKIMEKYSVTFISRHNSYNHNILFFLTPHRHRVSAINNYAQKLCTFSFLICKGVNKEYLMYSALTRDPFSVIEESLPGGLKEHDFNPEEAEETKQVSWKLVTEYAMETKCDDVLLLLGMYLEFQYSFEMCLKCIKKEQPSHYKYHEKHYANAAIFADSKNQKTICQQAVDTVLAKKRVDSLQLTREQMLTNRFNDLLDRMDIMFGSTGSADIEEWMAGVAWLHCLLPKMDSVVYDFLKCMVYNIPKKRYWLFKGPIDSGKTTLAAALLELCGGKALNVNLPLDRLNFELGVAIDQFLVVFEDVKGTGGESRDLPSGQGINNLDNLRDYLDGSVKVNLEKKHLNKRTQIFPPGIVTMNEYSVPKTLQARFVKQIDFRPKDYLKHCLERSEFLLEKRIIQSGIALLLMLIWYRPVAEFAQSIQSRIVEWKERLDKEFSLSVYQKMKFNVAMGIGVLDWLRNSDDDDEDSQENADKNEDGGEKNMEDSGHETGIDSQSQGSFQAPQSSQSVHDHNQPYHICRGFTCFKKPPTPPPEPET
Intestinal-type alkaline phosphatase, sequence (P24822 whole entry): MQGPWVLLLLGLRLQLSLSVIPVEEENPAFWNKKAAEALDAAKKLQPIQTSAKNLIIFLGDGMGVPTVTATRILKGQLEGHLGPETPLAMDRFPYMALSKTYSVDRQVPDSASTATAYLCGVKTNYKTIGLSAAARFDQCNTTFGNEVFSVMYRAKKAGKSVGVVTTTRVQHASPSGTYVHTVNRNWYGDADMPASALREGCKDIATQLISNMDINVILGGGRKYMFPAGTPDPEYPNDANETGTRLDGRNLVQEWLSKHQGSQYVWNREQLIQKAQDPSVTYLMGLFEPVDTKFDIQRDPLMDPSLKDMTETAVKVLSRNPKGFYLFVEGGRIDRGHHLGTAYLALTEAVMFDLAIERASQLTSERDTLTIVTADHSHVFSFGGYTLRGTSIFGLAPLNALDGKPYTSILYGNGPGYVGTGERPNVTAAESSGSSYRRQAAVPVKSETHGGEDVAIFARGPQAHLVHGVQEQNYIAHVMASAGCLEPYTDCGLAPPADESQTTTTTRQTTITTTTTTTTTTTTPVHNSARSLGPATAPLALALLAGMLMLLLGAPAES
Likely tRNA 2'-phosphotransferase, sequence (Q5A7N4 whole entry): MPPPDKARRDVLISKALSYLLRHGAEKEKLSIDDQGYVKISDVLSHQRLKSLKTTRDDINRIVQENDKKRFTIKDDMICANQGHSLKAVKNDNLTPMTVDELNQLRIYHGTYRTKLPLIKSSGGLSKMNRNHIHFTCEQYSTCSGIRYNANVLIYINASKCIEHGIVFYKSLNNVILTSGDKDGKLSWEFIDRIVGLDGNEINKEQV
Dual specificity protein phosphatase 3, sequence (P51452 whole entry): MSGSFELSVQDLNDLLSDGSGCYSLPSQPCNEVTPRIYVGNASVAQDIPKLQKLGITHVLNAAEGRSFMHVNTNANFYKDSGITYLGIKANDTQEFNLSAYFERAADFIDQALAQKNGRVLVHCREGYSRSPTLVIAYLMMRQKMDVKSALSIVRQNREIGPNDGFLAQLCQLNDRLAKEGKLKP

**Q.** Which IC50 [1] does the source give for O=C1c2ccccc2C(=O)c2[nH]c(O)nc21 here?
**A.** Its IC50 is 4.48 µM (active).

**Q.** For CCOC(=O)C1=C(C)OC2(O)c3ccccc3C(=O)C12O (centres undefined), which IC50 [2] is on record?
**A.** The IC50 was 0.428 µM (active).

**Q.** And the IC50 (Caspase-3)?
**A.** Its IC50 is > 100 µM (inactive).

**Q.** What about the IC50 [3] of the same compound?
**A.** The IC50 was 5.38 µM (active).

**Q.** What does the source list for COC(=O)c1cc(C)nc2c1C(=O)C(=O)C=C2N1CCOCC1?
**A.** IC50 (Hexokinase HKDC1): 4.41 µM (active); IC50 [4]: 3.21 µM (active)

**Q.** Which results are given for NS(=O)(=O)c1cc(C(=O)NC2CCSc3ccccc32)ccc1Cl (centres undefined)?
**A.** EC50 [5]: 5.57 µM (active); EC50 [6]: 68.1 µM (active); IC50 [7]: 4.4 µM (active); IC50 [8]: 0.065 µM (active); IC50 (Large T antigen): 62.1 µM (active); IC50 [9]: > 55.7 µM (not active); AC50 (Keap1/Nrf2): > 52 µM (inactive); AC50 (ORF 73): 10.1 µM (active)
